Test results from publication PMC8382989 (Biochemistry, 2013).
Substitutions are numbered along the chain they refer to. Names and notes keep the numbering of the source. Read-outs that look alike come from different tables or passages of the source.

Key:
[1] = molecular target: T1, human RNR subunit α (H-α) (Homo sapiens, UniProt P23921); assay: CDP reductase activity titration with dATP; format: biochemical
T1 sequence (P23921 1-792): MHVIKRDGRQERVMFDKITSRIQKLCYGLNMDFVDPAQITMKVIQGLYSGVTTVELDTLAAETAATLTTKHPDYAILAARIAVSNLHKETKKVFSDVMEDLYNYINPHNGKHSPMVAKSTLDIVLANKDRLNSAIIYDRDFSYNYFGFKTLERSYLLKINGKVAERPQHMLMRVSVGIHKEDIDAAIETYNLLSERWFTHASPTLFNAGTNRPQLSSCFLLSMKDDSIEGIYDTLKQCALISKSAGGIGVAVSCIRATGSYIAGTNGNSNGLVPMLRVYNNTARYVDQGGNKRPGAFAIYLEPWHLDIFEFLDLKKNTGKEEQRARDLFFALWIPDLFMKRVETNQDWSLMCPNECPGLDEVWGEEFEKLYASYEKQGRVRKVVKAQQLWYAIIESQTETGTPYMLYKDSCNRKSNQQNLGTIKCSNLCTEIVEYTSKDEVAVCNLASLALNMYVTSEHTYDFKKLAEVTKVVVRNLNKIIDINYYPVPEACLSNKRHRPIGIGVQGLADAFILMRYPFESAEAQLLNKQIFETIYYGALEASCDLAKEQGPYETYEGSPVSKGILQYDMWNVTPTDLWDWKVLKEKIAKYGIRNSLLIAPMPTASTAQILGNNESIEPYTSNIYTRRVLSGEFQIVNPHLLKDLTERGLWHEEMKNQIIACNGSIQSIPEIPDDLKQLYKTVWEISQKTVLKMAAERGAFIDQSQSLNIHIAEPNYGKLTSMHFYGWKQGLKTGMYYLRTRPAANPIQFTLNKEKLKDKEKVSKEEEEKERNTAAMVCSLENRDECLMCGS

[2] = molecular target: T2, human RNR subunit α, N-terminal domain alone (H-NTD) (Homo sapiens, UniProt P23921); assay: fluorescence anisotropy titration; format: binding
T2 sequence (P23921 1-91): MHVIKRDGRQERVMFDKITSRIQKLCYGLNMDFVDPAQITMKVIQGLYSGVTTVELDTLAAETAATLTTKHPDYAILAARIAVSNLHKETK

[3] = molecular target: E. coli RNR subunit α, catalytic body alone (E-CB) (Escherichia coli, UniProt P00452); assay: fluorescence anisotropy titration; format: binding
Sequence of E. coli RNR subunit α, catalytic body alone (E-CB) (P00452 94-761): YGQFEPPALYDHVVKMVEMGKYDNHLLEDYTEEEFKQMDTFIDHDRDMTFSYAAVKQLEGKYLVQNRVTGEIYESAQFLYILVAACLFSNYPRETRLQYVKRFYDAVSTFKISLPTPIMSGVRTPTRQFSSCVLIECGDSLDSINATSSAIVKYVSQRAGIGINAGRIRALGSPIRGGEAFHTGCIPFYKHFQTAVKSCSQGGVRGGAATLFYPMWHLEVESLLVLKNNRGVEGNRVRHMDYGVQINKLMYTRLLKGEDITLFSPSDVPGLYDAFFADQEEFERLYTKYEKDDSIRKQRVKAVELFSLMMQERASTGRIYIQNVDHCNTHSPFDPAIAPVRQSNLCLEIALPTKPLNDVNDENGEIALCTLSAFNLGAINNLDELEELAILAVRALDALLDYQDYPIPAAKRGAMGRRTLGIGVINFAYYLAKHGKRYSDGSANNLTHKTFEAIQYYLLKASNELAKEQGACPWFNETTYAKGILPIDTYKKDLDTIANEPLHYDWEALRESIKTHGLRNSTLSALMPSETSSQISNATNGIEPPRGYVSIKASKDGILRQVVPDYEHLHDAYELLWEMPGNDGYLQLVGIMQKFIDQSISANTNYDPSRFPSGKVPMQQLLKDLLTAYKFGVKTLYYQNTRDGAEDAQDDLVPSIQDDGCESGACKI

SEC [4] = molecular target: the molecule itself; assay: SEC
SEC [5] = molecular target: the molecule itself; assay: SEC; remark: listed apart in the source

Work on `Nc1ncnc2c1ncn2[C@H]1C[C@H](O)[C@@H](COP(=O)(O)OP(=O)(O)OP(=O)(O)O)O1` [dATP] yielded an EC50 [1] of 33 ± 7 µM.

Texas Red-5-dATP showed a Kd [2] of 153 ± 19 µM and a Kd [3] of 5.3 ± 0.3 µM.

B1: E. coli ribonucleotide reductase subunit β (enzyme)
chain: AYTTFSQTKNDQLKEPMFFGQPVNVARYDQQKYDIFEKLIEKQLSFFWRPEEVDVSRDRIDYQALPEHEKHIFISNLKYQTLLDSIQGRSPNVALLPLISIPELETWVETWAFSETIHSRSYTHIIRNIVNDPSVVFDDIVTNEQIQKRAEGISSYYDELIEMTSYWHLLGEGTHTVNGKTVTVSLRELKKKLYLCLMSVNALEAIRFYVSFACSFAFAERELMEGNAKIIRLIARDEALHLTGTQHMLNLLRSGADDPEMAEIAEECKQECYDLFVQAAQQEKDWADYLFRDGSMIGLNKDILCQYVEYITNIRMQAVGLDLPFQTRSNPIPWINTWLVSDNVQVAPQEVEVSSYLVGQIDSEVDTDDLSNFQL
In the case of B1, the “stoichiometry N” value (SEC [4]) is reported as 2.

B2: human ribonucleotide reductase subunit α (enzyme, UniProt P23921 1-792, looked up)
chain: T1 sequence (P23921 1-792)
For B2, the “stoichiometry N” value (SEC [5]) was 6.

B3: human D57N-α (point mutant of human RNR subunit α) (enzyme, UniProt P23921 1-792, looked up)
chain: T1 sequence (P23921 1-792) with D57N
In the case of B3, the “stoichiometry N” value (SEC [5]) is reported as 2.
